Reference: ChEMBL document CHEMBL1201862, “PubChem BioAssay data set” (2004)
Active and inactive are the calls of the source.

How the values were obtained:
[1] = target: T1, G-protein coupled receptor 55 (Homo sapiens, UniProt Q9Y2T6); assay: selective activators of receptor GPR55 – imaging, U2OS cells, beta-arrestin-GFP redistribution, primary screen (AID 1961); assay type: functional
Cannabinoid receptor 2 [2] = target: T2, Cannabinoid receptor 2 (Homo sapiens, UniProt P34972); assay: SAR analysis of antagonists of the Cannabinoid Receptor 2 using an Image-Based Assay - Set 2. [Related pubchem assays (depositor defined):AID1961, AID1965]; assay type: functional
T2 sequence (P34972 whole entry): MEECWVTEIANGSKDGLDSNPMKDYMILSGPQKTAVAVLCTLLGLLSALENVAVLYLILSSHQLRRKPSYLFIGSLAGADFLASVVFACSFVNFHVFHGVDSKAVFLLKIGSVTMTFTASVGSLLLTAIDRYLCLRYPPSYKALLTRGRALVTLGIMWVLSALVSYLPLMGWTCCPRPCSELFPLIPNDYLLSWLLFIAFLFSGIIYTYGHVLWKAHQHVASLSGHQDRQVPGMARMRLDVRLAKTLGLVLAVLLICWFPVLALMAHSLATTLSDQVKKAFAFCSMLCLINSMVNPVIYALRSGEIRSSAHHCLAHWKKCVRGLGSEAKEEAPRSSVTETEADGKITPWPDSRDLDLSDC

Cannabinoid receptor 2 [3] = target: T2, Cannabinoid receptor 2; assay: SAR analysis of agonists of the Cannabinoid Receptor 2 using an Image-Based Assay - Set 2. [Related pubchem assays (depositor defined):AID1961, AID1965]; assay type: functional
[4] = target: T1, G-protein coupled receptor 55; assay: SAR analysis of selective Agonists of GPR55 using an Image-Based Assay. [Related pubchem assays (depositor defined):AID1961, AID1965]; assay type: functional
Cannabinoid receptor 1 = Cannabinoid receptor 1 (Homo sapiens, UniProt P21554); assay: SAR analysis of antagonists of the Cannabinoid Receptor 1 using an Image-Based Assay. [Related pubchem assays (depositor defined):AID1961, AID1965]; assay type: functional
Chain of Cannabinoid receptor 1 (P21554 whole entry): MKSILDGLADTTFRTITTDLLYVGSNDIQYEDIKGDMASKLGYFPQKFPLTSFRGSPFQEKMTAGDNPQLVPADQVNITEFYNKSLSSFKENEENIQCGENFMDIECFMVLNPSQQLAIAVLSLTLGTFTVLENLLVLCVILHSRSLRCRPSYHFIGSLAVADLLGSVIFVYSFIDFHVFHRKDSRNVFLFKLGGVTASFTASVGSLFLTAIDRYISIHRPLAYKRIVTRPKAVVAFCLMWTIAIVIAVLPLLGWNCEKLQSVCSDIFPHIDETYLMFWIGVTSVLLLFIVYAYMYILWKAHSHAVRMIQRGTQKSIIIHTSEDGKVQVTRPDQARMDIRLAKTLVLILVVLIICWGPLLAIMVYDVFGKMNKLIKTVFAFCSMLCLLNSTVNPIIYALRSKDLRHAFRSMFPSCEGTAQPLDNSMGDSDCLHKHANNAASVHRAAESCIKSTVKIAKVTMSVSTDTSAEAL

Cytochrome P450 3A4 = Cytochrome P450 3A4 (Homo sapiens, UniProt P08684);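 note: CYP3A4 tested as one member of a cytochrome P450 panel screen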
Chain of Cytochrome P450 3A4 (P08684 whole entry): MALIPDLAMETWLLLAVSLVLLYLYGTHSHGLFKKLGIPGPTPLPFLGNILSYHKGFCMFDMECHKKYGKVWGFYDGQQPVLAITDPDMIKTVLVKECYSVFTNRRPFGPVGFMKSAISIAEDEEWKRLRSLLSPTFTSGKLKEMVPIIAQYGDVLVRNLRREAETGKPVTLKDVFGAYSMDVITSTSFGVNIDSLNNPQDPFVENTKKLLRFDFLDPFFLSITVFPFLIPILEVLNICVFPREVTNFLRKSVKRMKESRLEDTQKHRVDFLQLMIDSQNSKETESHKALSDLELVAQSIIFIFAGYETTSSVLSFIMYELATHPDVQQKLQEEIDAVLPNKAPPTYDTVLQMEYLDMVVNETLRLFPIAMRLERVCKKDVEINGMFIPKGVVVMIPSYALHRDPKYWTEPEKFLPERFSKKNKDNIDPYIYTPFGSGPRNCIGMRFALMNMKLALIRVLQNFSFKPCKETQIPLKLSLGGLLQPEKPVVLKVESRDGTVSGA

[5] = target: T1, G-protein coupled receptor 55; assay: inhibition of LPI-stimulated GPR55 beta-arrestin translocation – imaging, U2OS, beta-arrestin-GFP, LPI agonist, primary screen (AID 2013); assay type: functional;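 note: antagonist potency measured as reduced agonist-driven arrestin aggregation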
[6] = Luminescence Cell-Based Dose Retest to Confirm Inhibitors of Cancer Stem Cells. [Related pubchem assays (depositor defined):AID2717, AID2721]; assay type: functional; settings: Homo sapiens
Beta-lactamase [7] = target: Beta-lactamase (Salmonella choleraesuis (strain SC-B67), UniProt Q5J463); assay: Epi-absorbance-based counterscreen for selective VIM-2 inhibitors: dose response biochemical high throughput screening assay to identify inhibitors of TEM-1 serine-beta-lactamase.
Chain of Beta-lactamase (Salmonella choleraesuis (strain SC-B67), UniProt Q5J463) (Q5J463 whole entry): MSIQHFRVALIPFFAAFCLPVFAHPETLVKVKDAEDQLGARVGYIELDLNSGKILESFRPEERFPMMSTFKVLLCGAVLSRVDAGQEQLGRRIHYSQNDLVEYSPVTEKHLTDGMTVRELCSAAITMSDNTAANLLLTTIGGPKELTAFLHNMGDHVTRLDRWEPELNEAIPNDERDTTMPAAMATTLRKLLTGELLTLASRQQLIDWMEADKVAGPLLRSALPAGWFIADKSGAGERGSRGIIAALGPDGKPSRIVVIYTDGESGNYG

Beta-lactamase [8] = target: T3, Beta-lactamase (Pseudomonas aeruginosa, UniProt Q79MP6); assay: inhibition of IMP-1 beta-lactamase activity – biochemical, epi-absorbance, selectivity assay for VIM-2 inhibitor project, dose response (AID 1920)
T3 sequence (Q79MP6 whole entry): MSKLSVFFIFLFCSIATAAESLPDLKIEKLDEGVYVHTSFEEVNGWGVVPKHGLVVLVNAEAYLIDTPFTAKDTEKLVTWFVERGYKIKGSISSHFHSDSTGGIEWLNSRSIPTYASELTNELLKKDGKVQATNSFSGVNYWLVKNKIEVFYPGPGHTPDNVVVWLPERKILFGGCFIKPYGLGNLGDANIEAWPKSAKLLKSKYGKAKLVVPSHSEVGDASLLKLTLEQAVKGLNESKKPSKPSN

Beta-lactamase [9] = target: T3, Beta-lactamase; assay: […] counterscreen for selective VIM-2 inhibitors: dose response biochemical high throughput screening assay to identify inhibitors of IMP-1 metallo-beta-lactamase.
[10] = target: DNA dC->dU-editing enzyme APOBEC-3A (Homo sapiens, UniProt P31941); assay: A3A deaminase inhibition for selectivity – biochemical, dose response (AID 504722); assay type: functional
Chain of DNA dC->dU-editing enzyme APOBEC-3A (P31941 whole entry): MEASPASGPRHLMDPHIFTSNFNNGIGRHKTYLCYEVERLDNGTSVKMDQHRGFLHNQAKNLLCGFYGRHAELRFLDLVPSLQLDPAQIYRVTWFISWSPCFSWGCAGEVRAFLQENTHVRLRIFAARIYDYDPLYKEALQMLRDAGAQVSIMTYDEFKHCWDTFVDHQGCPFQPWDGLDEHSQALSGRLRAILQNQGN

[11] = target: DNA dC->dU-editing enzyme APOBEC-3G (Homo sapiens, UniProt Q9HC16); assay: Dose Response confirmation of small molecule APOBEC3G DNA Deaminase Inhibitors via a fluorescence-based single-stranded DNA deaminase assay. [Related pubchem assays (depositor defined):AID493012, AID493028]; assay type: functional
Chain of DNA dC->dU-editing enzyme APOBEC-3G (Q9HC16 whole entry): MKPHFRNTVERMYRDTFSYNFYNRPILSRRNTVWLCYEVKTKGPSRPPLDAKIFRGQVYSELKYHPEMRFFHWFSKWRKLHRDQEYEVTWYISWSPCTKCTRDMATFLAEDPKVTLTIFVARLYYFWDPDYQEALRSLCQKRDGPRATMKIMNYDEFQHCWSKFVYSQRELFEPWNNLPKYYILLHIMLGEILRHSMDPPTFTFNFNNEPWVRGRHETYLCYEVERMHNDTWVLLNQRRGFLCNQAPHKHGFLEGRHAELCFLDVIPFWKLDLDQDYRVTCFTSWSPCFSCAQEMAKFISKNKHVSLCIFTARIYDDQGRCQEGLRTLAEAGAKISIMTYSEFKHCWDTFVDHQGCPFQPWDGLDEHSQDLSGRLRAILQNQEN

[12] = target: FAD-linked sulfhydryl oxidase ALR (Homo sapiens, UniProt P55789); assay: ALR-catalysed DTT oxidation blockers – biochemical, H2O2 detection, luminescence, cherry-pick, dose response (AID 493248)
Chain of FAD-linked sulfhydryl oxidase ALR (P55789 whole entry): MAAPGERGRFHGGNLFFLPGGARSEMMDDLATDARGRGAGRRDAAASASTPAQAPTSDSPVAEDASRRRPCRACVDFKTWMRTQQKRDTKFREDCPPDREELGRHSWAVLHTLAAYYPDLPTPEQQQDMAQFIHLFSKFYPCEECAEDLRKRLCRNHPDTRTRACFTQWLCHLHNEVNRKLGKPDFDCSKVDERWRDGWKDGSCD

[13] = viability of uninfected HEp-2 cells – cell-based, HTS, cytotoxicity control for RSV inhibitor project, dose response (AID 2410); assay type: functional; settings: human respiratory syncytial virus
[14] = tested on: Streptococcus sp. 'group A'; assay: Streptococcus pyogenes SK(-)GAS viability under kanamycin – luminescence, BacTiterGlo, confirmation, counter-screen for streptokinase expression inhibitor project, dose response (AID 1900); assay type: functional, organism-based
Streptococcus = assay: GAS UMAA2166 growth inhibition – luminescence, BacTiterGlo, counter-screen for streptokinase expression inhibitor project, dose response (AID 1915); assay type: functional, organism-based;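 note: potency for reduction of bacterial viability or growth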
CHO-K1 = assay: (§1) Counterscreen for antagonists of the orexin 1 receptor (OX1R; HCRTR1): Homogeneous time resolved fluorescence (HTRF)-based cell-based dose response assay to identify antagonists of the parental CHO-K1 cell line. [Related pubchem assays (depositor defined):AID434989, AID435008, AID463079, AID485270, AID492963, AID492964, AID492965, AID493232, AID504699, AID504701]; assay type: functional; settings: Cricetulus griseus
[15] = as §1, with “Fluorescence-based” for “Homogeneous time resolved fluorescence (HTRF)-based”, “cell-based high throughput” for “cell-based”, “CHO” for “CHO-K1”; assay type: functional
[16] = target: T4, Orexin/Hypocretin receptor type 1 (Homo sapiens, UniProt O43613); assay: Homogeneous Time Resolved Fluorescence (HTRF)-based cell-based high throughput dose response assay for antagonists of the orexin 1 receptor (OX1R; HCRTR1). [Related pubchem assays (depositor defined):AID434989, AID435008, AID463079, AID485270, AID492963, AID492964, AID492965, AID493232, AID504717, AID504718]; assay type: functional
T4 sequence (O43613 whole entry): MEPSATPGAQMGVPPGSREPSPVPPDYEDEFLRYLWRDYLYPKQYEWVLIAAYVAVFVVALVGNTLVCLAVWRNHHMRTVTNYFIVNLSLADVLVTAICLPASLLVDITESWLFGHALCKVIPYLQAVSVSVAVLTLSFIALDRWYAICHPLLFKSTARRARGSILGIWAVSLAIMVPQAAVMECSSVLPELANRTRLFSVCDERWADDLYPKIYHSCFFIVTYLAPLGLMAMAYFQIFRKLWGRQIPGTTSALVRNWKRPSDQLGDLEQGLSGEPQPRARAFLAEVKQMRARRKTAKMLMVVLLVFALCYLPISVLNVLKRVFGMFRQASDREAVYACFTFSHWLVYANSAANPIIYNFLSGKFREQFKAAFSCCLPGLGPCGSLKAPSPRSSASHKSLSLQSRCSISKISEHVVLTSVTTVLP

[17] = target: T4, Orexin/Hypocretin receptor type 1; assay: Fluorescence-based cell-based high throughput dose response assay for antagonists of the orexin 1 receptor (OX1R; HCRTR1). [Related pubchem assays (depositor defined):AID434989, AID435008, AID463079, AID485270, AID492963, AID492964, AID492965, AID493232, AID504717, AID504718]; assay type: functional
[18] = target: Glyceraldehyde-3-phosphate dehydrogenase (Homo sapiens, UniProt P04406)
Chain of Glyceraldehyde-3-phosphate dehydrogenase (P04406 whole entry): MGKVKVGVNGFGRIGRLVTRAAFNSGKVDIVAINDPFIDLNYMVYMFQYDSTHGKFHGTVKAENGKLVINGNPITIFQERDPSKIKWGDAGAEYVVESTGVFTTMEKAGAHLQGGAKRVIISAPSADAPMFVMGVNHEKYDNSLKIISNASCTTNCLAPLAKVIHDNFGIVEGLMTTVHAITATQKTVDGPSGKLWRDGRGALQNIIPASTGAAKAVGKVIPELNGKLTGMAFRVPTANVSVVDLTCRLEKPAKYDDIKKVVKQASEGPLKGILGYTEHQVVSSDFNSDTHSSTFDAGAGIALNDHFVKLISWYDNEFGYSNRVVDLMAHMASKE

[19] = target: T5, Alkaline phosphatase, tissue-nonspecific isozyme (Homo sapiens, UniProt P05186); assay: potency against alkaline phosphatase TNAP – biochemical, luminescent, dose response, SAR follow-up (AID 1056)
T5 sequence (P05186 whole entry): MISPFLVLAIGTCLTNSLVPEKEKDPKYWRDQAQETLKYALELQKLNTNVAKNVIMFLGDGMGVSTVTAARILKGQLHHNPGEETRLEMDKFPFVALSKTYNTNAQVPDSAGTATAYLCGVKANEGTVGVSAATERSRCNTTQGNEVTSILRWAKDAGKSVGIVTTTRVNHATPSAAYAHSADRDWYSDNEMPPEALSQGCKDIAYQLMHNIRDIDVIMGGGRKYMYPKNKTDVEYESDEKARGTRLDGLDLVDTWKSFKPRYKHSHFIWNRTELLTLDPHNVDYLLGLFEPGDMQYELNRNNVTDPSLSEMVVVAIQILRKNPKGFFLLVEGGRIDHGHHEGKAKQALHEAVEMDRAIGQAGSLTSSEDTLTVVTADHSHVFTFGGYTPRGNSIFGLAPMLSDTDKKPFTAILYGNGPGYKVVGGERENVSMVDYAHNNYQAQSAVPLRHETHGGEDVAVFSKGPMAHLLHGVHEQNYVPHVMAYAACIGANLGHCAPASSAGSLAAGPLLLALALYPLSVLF

BJ [20] = assay: BJ-TERT fibroblast viability loss – cell-based, RAS-independent, luminescence, dose response (AID 1933); assay type: functional; settings: Homo sapiens
[21] = target: T6, Heat shock factor protein 1 (Mus musculus, UniProt P38532); assay: decrease of HSF1-responsive luciferase luminescence – cell-based, NIH3T3, dose retest, confirmation (AID 2382); assay type: functional;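 note: NIH3T3 fibroblasts with HSF1-driven luciferase reporter stressed by proteasome inhibitor MG132; luminescence from HSF1-driven luciferase expression after 8 hours of MG132 stress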
T6 sequence (P38532 whole entry): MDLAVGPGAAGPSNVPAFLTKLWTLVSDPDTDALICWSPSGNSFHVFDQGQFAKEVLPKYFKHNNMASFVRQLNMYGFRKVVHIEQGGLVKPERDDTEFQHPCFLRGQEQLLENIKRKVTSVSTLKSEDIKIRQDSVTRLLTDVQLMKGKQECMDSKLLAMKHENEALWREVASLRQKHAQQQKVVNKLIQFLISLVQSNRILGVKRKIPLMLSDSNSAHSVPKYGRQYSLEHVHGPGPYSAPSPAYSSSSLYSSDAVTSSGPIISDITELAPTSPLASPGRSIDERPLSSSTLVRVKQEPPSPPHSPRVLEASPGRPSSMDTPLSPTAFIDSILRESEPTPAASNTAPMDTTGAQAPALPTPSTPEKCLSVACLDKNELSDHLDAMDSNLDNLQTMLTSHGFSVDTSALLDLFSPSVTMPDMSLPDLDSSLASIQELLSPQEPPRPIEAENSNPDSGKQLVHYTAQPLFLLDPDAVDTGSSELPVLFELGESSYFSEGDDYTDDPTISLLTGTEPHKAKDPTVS

BJ [22] = assay: cells; assay type: functional, cell-based; settings: Homo sapiens
BJ [23] = assay: BJ-TERT-LT-ST fibroblast viability loss – cell-based, RAS-independent, luminescence, dose response (AID 1935); assay type: functional; settings: Homo sapiens;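 note: BJ fibroblasts immortalized with TERT plus LT and ST oncogenes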
[24] = DRD fibroblast viability loss – cell-based, non-viral oncogenic, luminescence, dose response (AID 1934); assay type: functional; settings: Homo sapiens
[25] = target: T7, Microphthalmia-associated transcription factor (Homo sapiens, UniProt O75030); assay: reducers of TRPM1 reporter luminescence, concentration series – cell-based, SK-MEL-5, cherry-picked, set 3, MITF inhibitor project, dose response (AID 493073); assay type: functional;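 note: SK-MEL-5 melanoma cells with luciferase driven by the MITF target TRPM1 promoter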
T7 sequence (O75030 whole entry): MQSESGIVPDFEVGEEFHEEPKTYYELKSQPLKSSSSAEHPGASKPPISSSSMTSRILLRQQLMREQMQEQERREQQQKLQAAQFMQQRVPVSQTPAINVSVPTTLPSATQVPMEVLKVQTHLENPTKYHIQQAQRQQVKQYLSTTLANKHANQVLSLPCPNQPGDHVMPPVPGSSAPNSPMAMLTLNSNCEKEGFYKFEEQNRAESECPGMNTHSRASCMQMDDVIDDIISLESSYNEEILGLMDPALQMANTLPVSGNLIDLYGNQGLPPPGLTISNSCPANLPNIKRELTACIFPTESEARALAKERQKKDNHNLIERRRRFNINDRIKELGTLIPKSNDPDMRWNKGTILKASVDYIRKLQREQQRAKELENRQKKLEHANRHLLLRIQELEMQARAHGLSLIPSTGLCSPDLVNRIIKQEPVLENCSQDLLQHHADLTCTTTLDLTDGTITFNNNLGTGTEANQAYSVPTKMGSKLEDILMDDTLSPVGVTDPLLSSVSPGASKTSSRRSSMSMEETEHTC

A-375 = assay: proliferation inhibition in MITF-low A375 cells – cell-based, cherry-pick samples, set 2, counter-screen for MITF modulator project, dose response (AID 540335); assay type: functional; settings: Homo sapiens
Troponin, cardiac muscle = Troponin, cardiac muscle (Homo sapiens, UniProt P19429+P45379+P63316); assay: Fluorescence-based biochemical high throughput dose response assay for activators of the calcium sensitivity of cardiac Regulated Thin Filaments (RTF). [Related pubchem assays (depositor defined):AID493008, AID493018, AID504382, AID504383]; assay type: protein-complex assay

T1 sequence (Q9Y2T6 whole entry): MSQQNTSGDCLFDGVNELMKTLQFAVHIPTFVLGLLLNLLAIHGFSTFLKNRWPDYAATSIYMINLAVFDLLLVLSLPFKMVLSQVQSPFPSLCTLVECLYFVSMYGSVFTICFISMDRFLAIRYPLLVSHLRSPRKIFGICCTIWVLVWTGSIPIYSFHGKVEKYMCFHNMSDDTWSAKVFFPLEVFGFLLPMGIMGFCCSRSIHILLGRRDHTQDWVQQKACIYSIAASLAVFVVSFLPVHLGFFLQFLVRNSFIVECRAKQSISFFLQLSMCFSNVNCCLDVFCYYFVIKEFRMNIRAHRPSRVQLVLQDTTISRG

## COc1ccc2cc(C)c3nnc(SCC(=O)Nc4nc(-c5ccc(F)cc5)cs4)n3c2c1
[1]
  EC50: < 0.5 µM (active)
Cannabinoid receptor 2 [2]
  IC50: > 32 µM (inactive)
Cannabinoid receptor 2 [3]
  EC50: > 32 µM (inactive)
[4]
  EC50: 0.164 µM (active)
Cannabinoid receptor 1
  IC50: > 32 µM (inactive)

## COC(=O)N1CCC2(CCN(Cc3nccs3)CC2)CC1
Cytochrome P450 3A4
  AC50: inconclusive

## COc1ccc2c(c1)cc(C)c1nnc(SCC(=O)N(C)c3nc(-c4ccccc4)cs3)n12
Cannabinoid receptor 2 [2]
  IC50: > 32 µM (inactive)
Cannabinoid receptor 2 [3]
  EC50: > 32 µM (inactive)
[4]
  EC50: > 32 µM (inactive)
Cannabinoid receptor 1
  IC50: > 32 µM (inactive)

## O=c1c2ccccc2nc2n1C1(CCCCC1)Cc1ccccc1-2
[5]
  IC50: 2.41 µM (active)
[6]
  AC50: 2.06 µM (active)

## S=c1[nH]nc(-c2ccco2)n1Cc1ccccc1
Beta-lactamase [7]
  IC50: > 59.6 µM (inactive)
Beta-lactamase [8]
  IC50: > 59.6 µM (inactive)
Beta-lactamase [9]
  IC50: > 59.6 µM (inactive)
[10]
  IC50: > 100 µM (inactive)
[11]
  IC50: 2.89 µM (active)
[12]
  AC50: 7.95 µM (active)

## O=C(O)c1ccc(N2C(=O)CC(SC(=NCc3ccc4c(c3)OCO4)Nc3ccc(F)cc3)C2=O)cc1 (centres undefined)
[13]
  CC50: 32.4 µM (active)
[14]
  EC50: 4.89 µM (active)
Streptococcus
  EC50: 29 µM (active)
CHO-K1
  IC50: > 66.2 µM (inactive)
[15]
  IC50: 23.2 µM (inactive)
[16]
  IC50: 24.5 µM (inactive)
[17]
  IC50: 14.3 µM (inactive)
cells
  IC50: 23.9 µM (active)

## Cc1cc(C)c(S(=O)(=O)Nc2ccc3ccccc3c2)c(C)c1
[18]
  IC50: > 100 µM (not active)
[19]
  IC50: > 100 µM (inactive)

## Cc1ccc(C(=O)c2c[nH]c(C(=O)NCCCN3CCOCC3)c2)cc1
Cytochrome P450 3A4
  AC50: inconclusive

## CCCCN1C=CC(=C2C(=O)c3ccccc3C2=O)C=C1
BJ [20]
  EC50: 6.03 µM (active)
[21]
  EC50: 0.356 µM (active)
BJ [22]
  EC50: 7.56 µM (active)
BJ [23]
  EC50: > 150 µM (inconclusive)
[24]
  EC50: 7.63 µM (active)
[25]
  AC50: 0.921 µM (active)
A-375
  AC50: 20.6 µM (active)

## Cc1nnc(N/N=C/c2ccc(O)c([N+](=O)[O-])c2)nc1O
Troponin, cardiac muscle
  EC50: > 71.5 µM (inactive)

## CCOc1cc(C)c(C(C)C)cc1S(=O)(=O)Nc1cccnc1
[19]
  IC50: 18.9 µM (active)

## Cc1nn(C(C)(C)C)c(OC(=O)c2cccs2)c1Sc1ccccc1
[5]
  IC50: 5.36 µM (active)
